Test results: US10577341B1, “Beraprost-314d monohydrate crystals and methods for preparation thereof” (CHIROGATE INTERNATIONAL INC., priority 2018, dated 2020)

How the values were obtained:
[1] = Stability of anhydrous form versus monohydrate form of Beraprost-314d; assay and total impurities by HPLC after storage at 40° C.; format: physicochemical; settings: for Assay / Total Impurities: 40° C./60% RH, HPLC
Method: The Beraprost-314d monohydrate is stable at room temperature. For example, the formation of dimer and/or unwanted esterification byproducts by the presence of hydrates can be avoided. […] The assay and total impurities of Beraprost-314d monohydrate and anhydrous Beraprost-314d were measured by HPLC after treatment at 40° C., as shown in Table 3.

[2] = Crystalline form transformation of Beraprost-314d monohydrate Form A to Form B, followed by XRPD after isothermal standing; format: physicochemical; settings: for XRPD pattern after heating (crystalline form): 24 hours
Method: X-ray Powder Diffraction (XRPD) Analysis: The XRPD patterns were collected on a Bruker D2 PHASER diffractometer with fixed divergence slits and 1D LYNXEYE detector. The samples (ca. 100 mg) were placed flat on a sample holder. The prepared samples were analyzed over a 2θ range from 5° to 50° with step size of 0.02 degrees and step time of 1 second using CuKα radiation at a power of 10 mA and 30 kV The CuKβ radiation was removed by a divergent beam nickel filter,
The critical temperature (T*). of crystalline form transformation of Beraprost-314d monohydrate Form A and Form B was determined. Crystalline Beraprost-314d monohydrate Form A (0.10 g, from Example 3) was placed in glass vials, and heated to 25° C., 27° C., 29° C., 31° C., 33° C., and 35° C. and isothermal stood for 24 hours.

[3] = 3 days, listed as Beraprost-314d monohydrate, monohydrate

Assay ([1]; 1 day) | Total Impurities ([1]; 1 day) | Assay ([1]; 2 days) | Assay ([1]; 3 days) | Total Impurities ([1]; 3 days) | Total Impurities ([1]; 2 days) | Assay [1, 3] | Total Impurities [1, 3] | Assay ([1]; 3 days, monohydrate) | Total Impurities ([1]; 3 days, monohydrate) | Critical temperature (T*) of crystalline form transformation from Form A to Form B ([2]; isothermal standing for 24 hours, XRPD) | Compound | Stability compared with the anhydrous form ([1]; 40° C. for 3 days) | XRPD pattern after heating (crystalline form) ([2]; 25° C., 27° C. and 29° C.) | XRPD pattern after heating (crystalline form) ([2]; 31° C., 33° C. and 35° C.)
99.30% | 0.84% | 99.01% | 98.95% | 1.19% | – | – | – | – | – | – | CC#CC[C@H](C)[C@H](O)/C=C/[C@@H]1[C@H]2c3cccc(CCCC(=O)O)c3O[C@H]2C[C@H]1O [Anhydrous Beraprost-314d, Beraprost-314d] | – | – | –
99.89% | 0.17% | 99.77% | – | – | 0.25% | no apparent decrease | 0.33% | 99.69% | 0.33% | – | CC#CC[C@H](C)[C@H](O)/C=C/[C@@H]1[C@H]2c3cccc(CCCC(=O)O)c3O[C@H]2C[C@H]1O.O [Beraprost-314d Monohydrate, Beraprost-314d monohydrate] | more stable than the anhydrous Beraprost-314d | – | –
– | – | – | – | – | – | – | – | – | – | about 30±5 °C | CC#CC[C@H](C)[C@H](O)/C=C/[C@@H]1[C@H]2c3cccc(CCCC(=O)O)c3O[C@H]2C[C@H]1O.O [Beraprost-314d monohydrate] | – | remain Form A without any Form B feature peaks | an intermediate state containing both Form A and Form B
